According to PMC10008561 (Nature Communications, 2023):
“And” between values parts separate entries of the source, which are not always exact repeats. Equal entries are not always repeated. Where two headings read alike, the source gives them in different places.

Tests used:
KOR K227A [1] = target: T1, KOR K227A (Homo sapiens, UniProt P41145, K227A); format: cell-based; parameters: TEV cleavage site (C); tTA transcription factor (C); expressed in transfected cells; host or cells: HTLA cells; settings: Log [Drug]
Target sequence in this assay (P41145 whole entry K227A): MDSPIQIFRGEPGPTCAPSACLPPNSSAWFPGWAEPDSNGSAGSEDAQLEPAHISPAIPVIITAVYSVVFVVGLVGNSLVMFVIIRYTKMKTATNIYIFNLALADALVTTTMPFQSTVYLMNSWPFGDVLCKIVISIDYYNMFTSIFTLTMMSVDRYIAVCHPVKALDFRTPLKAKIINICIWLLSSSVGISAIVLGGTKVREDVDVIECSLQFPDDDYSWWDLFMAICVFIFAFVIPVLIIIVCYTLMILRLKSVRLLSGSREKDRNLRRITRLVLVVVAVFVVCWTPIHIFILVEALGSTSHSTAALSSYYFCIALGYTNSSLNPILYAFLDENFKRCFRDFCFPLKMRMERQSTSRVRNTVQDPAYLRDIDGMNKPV
Target sequence in this assay (P32121 whole entry partner): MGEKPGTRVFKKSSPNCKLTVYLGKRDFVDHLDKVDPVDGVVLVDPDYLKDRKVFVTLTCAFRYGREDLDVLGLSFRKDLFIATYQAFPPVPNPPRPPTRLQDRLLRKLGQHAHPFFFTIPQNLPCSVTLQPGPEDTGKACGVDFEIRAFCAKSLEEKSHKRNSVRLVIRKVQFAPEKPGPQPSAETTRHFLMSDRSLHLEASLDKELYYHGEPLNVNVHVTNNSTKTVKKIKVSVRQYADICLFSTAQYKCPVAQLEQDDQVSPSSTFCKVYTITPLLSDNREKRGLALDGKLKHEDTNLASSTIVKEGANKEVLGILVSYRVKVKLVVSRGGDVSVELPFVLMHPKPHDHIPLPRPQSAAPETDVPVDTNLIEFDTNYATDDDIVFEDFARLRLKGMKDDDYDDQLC

KOR K227A [2] = target: T1, KOR K227A; format: cell-based; parameters: expressed in transfected cells; host or cells: HEK 293T (ATCC, CRL-3216); settings: Log [Drug]
Target sequence in this assay (P41145 whole entry K227A): as the sequence (P41145 whole entry K227A) above

KOR = format: cell-based, human
human KOR (Gi2) [3] = target: T2, human KOR (Gi2) (Homo sapiens, UniProt P41145, N141A); assay: cell-based
T2 construct: expressed in transfected cells; host or cells: HEK293T
T2 sequence (P41145 whole entry N141A): as the sequence (P41145 whole entry K227A) above, with N141A, A227K counted along it

human KOR (Gi2) [4] = target: T3, human KOR (Gi2) (Homo sapiens, UniProt P41145); assay: cell-based
T3 construct: expressed in transfected cells; host or cells: HEK293T
T3 sequence (P41145 whole entry): as the sequence (P41145 whole entry K227A) above, with A227K counted along it

human KOR (Gi2) [5] = target: T4, human KOR (Gi2) (Homo sapiens, UniProt P41145, Y320L); assay: cell-based
T4 construct: expressed in transfected cells; host or cells: HEK293T
T4 sequence (P41145 whole entry Y320L): as the sequence (P41145 whole entry K227A) above, with A227K, Y320L counted along it

human KOR (Gi2) [6] = target: T5, human KOR (Gi2) (Homo sapiens, UniProt P41145, R271A); assay: cell-based
T5 construct: expressed in transfected cells; host or cells: HEK293T
T5 sequence (P41145 whole entry R271A): as the sequence (P41145 whole entry K227A) above, with A227K, R271A counted along it

human KOR (β-arrestin 2) [7] = target: T6, human KOR (β-arrestin 2) (Homo sapiens, UniProt P41145, T94V); assay: cell-based; settings: HEK-293T
T6 construct: expressed in transfected cells; host or cells: HEK293T
T6 sequence (P41145 whole entry T94V): as the sequence (P41145 whole entry K227A) above, with T94V, A227K counted along it

human KOR (β-arrestin 2) [8] = target: T7, human KOR (β-arrestin 2) (Homo sapiens, UniProt P41145, N141A); assay: cell-based; settings: HEK-293T
T7 construct: expressed in transfected cells; host or cells: HEK293T
T7 sequence (P41145 whole entry N141A): as the sequence (P41145 whole entry K227A) above, with N141A, A227K counted along it

human KOR (β-arrestin 2) [9] = target: T8, human KOR (β-arrestin 2) (Homo sapiens, UniProt P41145, K227A); assay: cell-based; settings: HEK-293T
T8 construct: expressed in transfected cells; host or cells: HEK293T
T8 sequence (P41145 whole entry K227A): as the sequence (P41145 whole entry K227A) above

human KOR (β-arrestin 2) [10] = target: T9, human KOR (β-arrestin 2) (Homo sapiens, UniProt P41145, R257A); assay: cell-based; settings: HEK-293T
T9 construct: expressed in transfected cells; host or cells: HEK293T
T9 sequence (P41145 whole entry R257A): as the sequence (P41145 whole entry K227A) above, with A227K, R257A counted along it

human KOR (β-arrestin 2) [11] = target: T10, human KOR (β-arrestin 2) (Homo sapiens, UniProt P41145, L253A); assay: cell-based; settings: HEK-293T
T10 construct: expressed in transfected cells; host or cells: HEK293T
T10 sequence (P41145 whole entry L253A): as the sequence (P41145 whole entry K227A) above, with A227K, L253A counted along it

human KOR (β-arrestin 2) [12] = target: T11, human KOR (β-arrestin 2) (Homo sapiens, UniProt P41145, D334A); assay: cell-based; settings: HEK-293T
T11 construct: expressed in transfected cells; host or cells: HEK293T
T11 sequence (P41145 whole entry D334A): as the sequence (P41145 whole entry K227A) above, with A227K, D334A counted along it

human KOR (β-arrestin 2) [13] = target: T12, human KOR (β-arrestin 2) (Homo sapiens, UniProt P41145, K200A); assay: cell-based; settings: HEK-293T
T12 construct: expressed in transfected cells; host or cells: HEK293T
T12 sequence (P41145 whole entry K200A): as the sequence (P41145 whole entry K227A) above, with K200A, A227K counted along it

human KOR (β-arrestin 2) [14] = target: T13, human KOR (β-arrestin 2) (Homo sapiens, UniProt P41145); assay: cell-based
T13 construct: expressed in transfected cells; host or cells: HEK293T
T13 sequence (P41145 whole entry): as the sequence (P41145 whole entry K227A) above, with A227K counted along it

human KOR (β-arrestin 2) [15] = target: T14, human KOR (β-arrestin 2) (Homo sapiens, UniProt P41145, N322A); assay: cell-based; settings: HEK-293T
T14 construct: expressed in transfected cells; host or cells: HEK293T
T14 sequence (P41145 whole entry N322A): as the sequence (P41145 whole entry K227A) above, with A227K, N322A counted along it

human KOR (β-arrestin 2) [16] = target: T15, human KOR (β-arrestin 2) (Homo sapiens, UniProt P41145, Q115N); assay: cell-based; settings: HEK-293T
T15 construct: expressed in transfected cells; host or cells: HEK293T
T15 sequence (P41145 whole entry Q115N): as the sequence (P41145 whole entry K227A) above, with Q115N, A227K counted along it

human KOR (β-arrestin 2) [17] = target: T16, human KOR (β-arrestin 2) (Homo sapiens, UniProt P41145, D155A); assay: cell-based; settings: HEK-293T
T16 construct: expressed in transfected cells; host or cells: HEK293T
T16 sequence (P41145 whole entry D155A): as the sequence (P41145 whole entry K227A) above, with D155A, A227K counted along it

human KOR (β-arrestin 2) [18] = target: T17, human KOR (β-arrestin 2) (Homo sapiens, UniProt P41145, F114L); assay: cell-based; settings: HEK-293T
T17 construct: expressed in transfected cells; host or cells: HEK293T
T17 sequence (P41145 whole entry F114L): as the sequence (P41145 whole entry K227A) above, with F114L, A227K counted along it

human KOR (β-arrestin 2) [19] = target: T18, human KOR (β-arrestin 2) (Homo sapiens, UniProt P41145, G319L); assay: cell-based; settings: HEK-293T
T18 construct: expressed in transfected cells; host or cells: HEK293T
T18 sequence (P41145 whole entry G319L): as the sequence (P41145 whole entry K227A) above, with A227K, G319L counted along it

human KOR (β-arrestin 2) [20] = target: T19, human KOR (β-arrestin 2) (Homo sapiens, UniProt P41145, E297A); assay: cell-based; settings: HEK-293T
T19 construct: expressed in transfected cells; host or cells: HEK293T
T19 sequence (P41145 whole entry E297A): as the sequence (P41145 whole entry K227A) above, with A227K, E297A counted along it

human KOR (β-arrestin 2) [21] = target: T20, human KOR (β-arrestin 2) (Homo sapiens, UniProt P41145, R170A); assay: cell-based; settings: HEK-293T
T20 construct: expressed in transfected cells; host or cells: HEK293T
T20 sequence (P41145 whole entry R170A): as the sequence (P41145 whole entry K227A) above, with R170A, A227K counted along it

human KOR (β-arrestin 2) [22] = target: T21, human KOR (β-arrestin 2) (Homo sapiens, UniProt P41145, R274A); assay: cell-based; settings: HEK-293T
T21 construct: expressed in transfected cells; host or cells: HEK293T
T21 sequence (P41145 whole entry R274A): as the sequence (P41145 whole entry K227A) above, with A227K, R274A counted along it

human KOR (β-arrestin 2) [23] = target: T22, human KOR (β-arrestin 2) (Homo sapiens, UniProt P41145, Y139L); assay: cell-based; settings: HEK-293T
T22 construct: expressed in transfected cells; host or cells: HEK293T
T22 sequence (P41145 whole entry Y139L): as the sequence (P41145 whole entry K227A) above, with Y139L, A227K counted along it

human KOR (β-arrestin 2) [24] = target: T23, human KOR (β-arrestin 2) (Homo sapiens, UniProt P41145, D266A); assay: cell-based; settings: HEK-293T
T23 construct: expressed in transfected cells; host or cells: HEK293T
T23 sequence (P41145 whole entry D266A): as the sequence (P41145 whole entry K227A) above, with A227K, D266A counted along it

human KOR (β-arrestin 2) [25] = target: T24, human KOR (β-arrestin 2) (Homo sapiens, UniProt P41145, R271A); assay: cell-based; settings: HEK-293T
T24 construct: expressed in transfected cells; host or cells: HEK293T
T24 sequence (P41145 whole entry R271A): as the sequence (P41145 whole entry K227A) above, with A227K, R271A counted along it

human KOR (β-arrestin 2) [26] = target: T25, human KOR (β-arrestin 2) (Homo sapiens, UniProt P41145, Y320L); assay: cell-based; settings: HEK-293T
T25 construct: expressed in transfected cells; host or cells: HEK293T
T25 sequence (P41145 whole entry Y320L): as the sequence (P41145 whole entry K227A) above, with A227K, Y320L counted along it

human KOR (β-arrestin 2) [27] = target: T26, human KOR (β-arrestin 2) (Homo sapiens, UniProt P41145, F283A); assay: cell-based; settings: HEK-293T
T26 construct: expressed in transfected cells; host or cells: HEK293T
T26 sequence (P41145 whole entry F283A): as the sequence (P41145 whole entry K227A) above, with A227K, F283A counted along it

CN(C(=O)/C=C/c1ccoc1)[C@@H]1CC[C@@]2(O)[C@H]3Cc4ccc(O)c5c4[C@@]2(CCN3CC2CC2)[C@H]1O5 [Nalfurafine, nalfurafine]
KOR K227A_Arrestin response (Figure S4D) (KOR K227A [1]; M -6, replicate values): 101.315 and 102.717 | KOR K227A_Arrestin response (Figure S4D) (KOR K227A [1]; M -6.5, replicate values): 105.822 and 93.8848 and 97.1199 | KOR K227A_Arrestin response (Figure S4D) (KOR K227A [1]; M -7, replicate values): 91.3062 and 96.8492 and 89.7833 | KOR K227A_Arrestin response (Figure S4D) (KOR K227A [1]; M -7.5, replicate values): 70.8658 and 86.1016 | KOR K227A_Arrestin response (Figure S4D) (KOR K227A [1]; M -8, replicate values): 84.9439 and 77.9998 | KOR K227A_Arrestin response (Figure S4D) (KOR K227A [1]; M -8.5, replicate values): 65.7403 and 77.6179 and 69.9994 | KOR K227A_Arrestin response (Figure S4D) (KOR K227A [1]; M -9, replicate values): 59.6373 and 67.8004 and 59.0282 | KOR K227A_Arrestin response (Figure S4D) (KOR K227A [1]; M -9.5, replicate values): 49.3052 and 47.5598 and 61.4935 | KOR K227A_Arrestin response (Figure S4D) (KOR K227A [1]; M -10, replicate values): 39.6619 and 44.8012 and 31.3899 | KOR K227A_Arrestin response (Figure S4D) (KOR K227A [1]; M -10.5, replicate values): 20.4503 and 25.5006 and 21.705 | KOR K227A_Arrestin response (Figure S4D) (KOR K227A [1]; M -11, replicate values): 23.8027 and 10.0134 and 11.9765 | KOR K227A_Arrestin response (Figure S4D) (KOR K227A [1]; M -12, replicate values): 12.7008 and 13.5043 | KOR K227A_Arrestin response (Figure S4D) (KOR K227A [1]; M -12.5, replicate values): 6.071 and 3.454 and 8.161 | KOR K227A_Arrestin response (Figure S4D) (KOR K227A [1]; M -13, replicate values): 5.581 and 8.377 and 4.789 | KOR K227A_Arrestin response (Figure S4D) (KOR K227A [1]; M -14, replicate values): 0.5358 and 5.464 and 0.3918 | KOR K227A_Gi response (Figure S4D) (KOR K227A [2]; M -6, replicate values): 107.002 and 103.527 and 102.568 | KOR K227A_Gi response (Figure S4D) (KOR K227A [2]; M -6.5, replicate values): 98.0139 and 98.733 and 102.808 | KOR K227A_Gi response (Figure S4D) (KOR K227A [2]; M -7, replicate values): 101.489 and 104.366 and 102.568 | KOR K227A_Gi response (Figure S4D) (KOR K227A [2]; M -7.5, replicate values): 98.3734 and 96.4559 and 94.5383 | KOR K227A_Gi response (Figure S4D) (KOR K227A [2]; M -8, replicate values): 100.531 and 98.0139 | KOR K227A_Gi response (Figure S4D) (KOR K227A [2]; M -8.5, replicate values): 99.8116 and 103.767 and 98.2536 | KOR K227A_Gi response (Figure S4D) (KOR K227A [2]; M -9, replicate values): 96.9353 and 103.167 and 100.291 | KOR K227A_Gi response (Figure S4D) (KOR K227A [2]; M -9.5, replicate values): 98.9727 and 99.5719 and 95.8566 | KOR K227A_Gi response (Figure S4D) (KOR K227A [2]; M -10, replicate values): 99.3322 and 106.283 and 99.5719 | KOR K227A_Gi response (Figure S4D) (KOR K227A [2]; M -10.5, replicate values): 95.9765 and 94.778 and 93.8193 | KOR K227A_Gi response (Figure S4D) (KOR K227A [2]; M -11, replicate values): 90.7033 and 96.5757 and 95.2574 | KOR K227A_Gi response (Figure S4D) (KOR K227A [2]; M -12, replicate values): 68.1721 and 73.8049 and 67.4531 | KOR K227A_Gi response (Figure S4D) (KOR K227A [2]; M -12.5, replicate values): 37.1319 and 43.2441 and 45.1616 | KOR K227A_Gi response (Figure S4D) (KOR K227A [2]; M -13, replicate values): 12.6833 and 10.4062 | KOR K227A_Gi response (Figure S4D) (KOR K227A [2]; M -14, replicate values): 6.331 and 5.612 and 17.3573 | ΔΔLog τ/KA (95% confidence interval) (KOR): 0.78 (0.65 to 0.91) | FC vs wild type (human KOR (Gi2) [3]): 7 | Emax (human KOR (Gi2) [3]; HEK-293T): 103% | Emax% (human KOR (Gi2) [4]): 101% | FC vs wild type (human KOR (Gi2) [4]): 1 | Emax (human KOR (Gi2) [4]; HEK-293T): 101% | FC vs wild type (human KOR (Gi2) [5]): 186 | Emax (human KOR (Gi2) [5]; HEK-293T): 89.3% | FC vs wild type (human KOR (Gi2) [6]): 112 | Emax (human KOR (Gi2) [6]; HEK-293T): 106% | Emax (human KOR (β-arrestin 2) [7]): 87.5% | Emax (human KOR (β-arrestin 2) [8]): 90.6% | Emax (human KOR (β-arrestin 2) [9]): 97.5% | Emax (human KOR (β-arrestin 2) [10]): 103% | Emax (human KOR (β-arrestin 2) [11]): 107% | Emax (human KOR (β-arrestin 2) [12]): 78% | Emax (human KOR (β-arrestin 2) [13]): 83.2% | Emax% (human KOR (β-arrestin 2) [14]): 80% | Emax (human KOR (β-arrestin 2) [14]; HEK-293T): 100 ± 4% | Emax (human KOR (β-arrestin 2) [15]): 87.1% | Emax (human KOR (β-arrestin 2) [16]): 67% | Emax (human KOR (β-arrestin 2) [17]): 90.2% | Emax (human KOR (β-arrestin 2) [18]): 48.7% | Emax (human KOR (β-arrestin 2) [19]): 71% | Emax (human KOR (β-arrestin 2) [20]): 101% | Emax (human KOR (β-arrestin 2) [21]): 100 ± 8.6% | Emax (human KOR (β-arrestin 2) [22]): 83.3% | Emax (human KOR (β-arrestin 2) [23]): 113% | Emax (human KOR (β-arrestin 2) [24]): 101% | Emax (human KOR (β-arrestin 2) [25]): 101 ± 8.2% | Emax (human KOR (β-arrestin 2) [26]): 65.9% | Emax (human KOR (β-arrestin 2) [27]): 100%
